Assay results published in ChEMBL document CHEMBL1122549, “Opioid agonists and antagonists. 6,6-Hydrazi and 6-oximino derivatives of 14-hydroxydihydromorphinones” (1984).

Experiments:
Format in all cases: functional
Mus musculus [1] = experiment: Compound was evaluated in vivo for the antagonist activity by the tail flick assay using morphine as the agonist in mice
Mus musculus [2] = experiment: Compound was evaluated in vivo for the agonist activity after subcutaneous administration as aqueous solutions of HCl salt in mice using Hot plate assay; settings: sc
Mus musculus [3] = experiment: Compound was evaluated in vivo for the agonist activity after subcutaneous administration as aqueous solutions of HCl salt in mice using Phenylquinone (PPQ) writhing assay; settings: sc
Mus musculus [4] = experiment: Compound was evaluated in vivo for the agonist activity after subcutaneous administration as aqueous solutions of HCl salt in mice using Tail flick assay; settings: sc
Mus musculus [5] = experiment: Compound was evaluated in vivo for the agonist activity after subcutaneous administration as aqueous solutions of HCl salt in mice using Nilsen assay; settings: sc
Mus musculus [6] = experiment: Compound was evaluated in vivo for the antagonist activity by the tail flick assay using morphine as the agonist in mice.
Mus musculus [7] = experiment: Compound was evaluated in vivo for the agonist activity after subcutaneous administration as aqueous solutions of HCl salt in mice using Nilsen assay.; settings: sc

Row | Structure (SMILES) | ED50 (Mus musculus [1]) [mg/kg] | ED50 (Mus musculus [2]) [mg/kg] | ED50 (Mus musculus [3]) [mg/kg] | ED50 (Mus musculus [4]) [mg/kg] | ED50 (Mus musculus [6]) [mg/kg] | other results
1 | CO/N=C1\CCC2(O)C3Cc4ccc(O)c5c4C2(CCN3CC2CC2)C1O5 (centres undefined) | 0.08 |  |  |  |  | 
2 | CN1CCC23c4c5ccc(O)c4OC2C2(CCC3(O)C1C5)NN2 (centres undefined) |  | 0.81 | 0.05 | 0.7 |  | ED50 (Mus musculus [5]): 2 mg/kg
3 | Oc1ccc2c3c1OC1C4(CCC5(O)C(C2)N(CC2CC2)CCC315)NN4 (centres undefined) |  |  |  |  | 0.02 | 
4 | CN1CCC23c4c5ccc(O)c4OC2/C(=N/O)CCC3(O)C1C5 (centres undefined) |  | 0.56 | 0.1 | 2.2 |  | ED50 (Mus musculus [7]): 0.45 mg/kg
5 | O/N=C1\CCC2(O)C3Cc4ccc(O)c5c4C2(CCN3CC2CC2)C1O5 (centres undefined) |  |  |  |  | 0.08 | 
6 | C=CCN1CCC23c4c5ccc(O)c4OC2/C(=N/O)CCC3(O)C1C5 (centres undefined) | 0.06 |  |  |  |  | 
7 | CO/N=C1\CCC2(O)C3Cc4ccc(O)c5c4C2(CCN3C)C1O5 (centres undefined) |  | 0.22 | 0.02 | 0.08 |  | 
8 | C=CCN1CCC23c4c5ccc(O)c4OC2/C(=N/OC)CCC3(O)C1C5 (centres undefined) | 1.9 |  |  |  |  | 
9 | CN1CC[C@]23c4c5ccc(O)c4O[C@H]2[C@@H](O)CC[C@H]3[C@H]1C5.Cl |  | 0.19 |  |  |  | ED50 (Mus musculus [7]): 0.2 mg/kg
10 | Cl.O=C1CC[C@@]2(O)[C@H]3Cc4ccc(O)c5c4[C@@]2(CCN3CC2CC2)[C@H]1O5 [NALTREXONE HYDROCHLORIDE] |  |  |  |  | 0.007 | 
